For this experiment, the system named is IL-12p70 (the complex of IL-12p35 and p40). Put plainly: IL-12p70 production inhibition in macrophages derived from mouse abdomen (IFN-γ/SAC stimulation, ELISA). It counts as cell-based. As to conditions: Macrophage; mouse (Balb/c) abdominal macrophages, 100 ng/mL mouse IFN-γ + 0.05% SAC, overnight; TFA salts tested where prepared as such; read-out: IL-12p70-Inhibitory Activity IC50. As to the method: One milliliter each of a 3% (w/v) thioglycolate solution was intraperitoneally administered to mice (female Balb/c mice), the abdominal cells of each mouse were recovered after 5 or 6 days from the administration of the thioglycolate solution and the adhesive cells were collected and used in the exaluation procedures. To a culture medium containing such adhesive cells, there were added 100 ng/mL of mouse interferon-γ and a 0.05% (v/v) liquid containing killed cells derived from Staphylococcus aureus Cowan I strain (SAC) and a candidate compound and then the mixture was cultivated overnight. After the completion of the cultivation, the survival ratios were determined, there were quantitatively determined the quantities of IL-12p70 (the complex of IL-12p35 and p40) and IL-12p40 or TNF-α according to the ELISA assays while making use of the recovered supernatant of the culture medium and the 50% production-inhibitory concentration (IC50) was calculated for each case (see Table 1 and Tables 1-9 for IL-12p70 and TNF-α and Tables 1 to 10 for IL-12p40).
Background: ELISA stands for enzyme-linked immunosorbent assay.

SMILES strings stand for the structures.

As for `Clc1ccccc1/C=N/Nc1cc(N2CCOCC2)n2nc(-c3ccccc3)cc2n1` [Compound 25, N-(2-chloro-benzylidene)-N′-(7-morpholin-4-yl-2-phenyl-pyrazolo[1,5-a]pyrimidin-5-yl)-hydrazine], the half-inhibitory concentration (IC50) (as a rule, the concentration at which inhibition is half-maximal) is 150 nM.
Regarding `Clc1cccc(/C=N/Nc2cc(N3CCOCC3)n3nc(-c4ccccc4)cc3n2)c1` [Compound 26, N-(3-chloro-benzylidene)-N′-(7-morpholin-4-yl-2-phenyl-pyrazolo[1,5-a]pyrimidin-5-yl)-hydrazine], the IC50 worked out at 120 nM.
Regarding `COc1ccccc1/C=N/Nc1cc(N2CCOCC2)n2nc(-c3ccccc3)cc2n1` [Compound 28, N-(2-methoxy-benzylidene)-N′-(7-morpholin-4-yl-2-phenyl-pyrazolo[1,5-a]pyrimidin-5-yl)-hydrazine], the half-inhibitory concentration (IC50) is 160 nM.
As for `COc1ccc(/C=N/Nc2cc(N3CCOCC3)n3nc(-c4ccccc4)cc3n2)cc1` [Compound 30, N-(4-methoxy-benzylidene)-N′-(7-morpholin-4-yl-2-phenyl-pyrazolo[1,5-a]pyrimidin-5-yl)-hydrazine], the concentration for half-maximal inhibition (IC50) came out at 180 nM.
Consider `COCCN(CCOC)c1ccc(-c2cc3nc(N/N=C/c4cccc(C)c4)cc(N4CCOCC4)n3n2)cc1` [Compound 32, N-{2-[4-bis-(2-methoxy-ethyl-amino)-phenyl]-7-morpholin-4-yl-pyrazolo[1,5-a]pyrimidin-5-yl}-N′-(3-methyl-benzylidene)-hydrazine], for which the IC50 amounted to 9.6 nM.
For the molecule `Cc1cccc(/C=N/Nc2cc(N3CCOCC3)n3nc(-c4ccco4)cc3n2)c1` [Compound 33, N-(2-furan-2-yl-7-morpholin-4-yl-pyrazolo[1,5-a]-pyrimidin-5-yl)-N′-(3-methyl-benzylidene)-hydrazine], the concentration for half-maximal inhibition (IC50) came out at 17 nM.
In the case of `Cc1cccc(/C=N/Nc2cc(N3CCOCC3)n3nc(OCCOc4ccccc4)cc3n2)c1` [Compound 37, N-(3-methyl-benzylidene)-N′-[7-morpholin-4-yl-2-(2-phenoxy-ethoxy)-pyrazolo[1,5-a]pyrimidin-5-yl]-hydrazine], the IC50 amounted to 110 nM.
In the case of `Cc1ccc(/C=N/Nc2cc(N3CCOCC3)n3nc(-c4ccccc4)cc3n2)o1` [Compound 54, N-(5-methyl-furan-2-yl-methylidene)-N′-(7-morpholin-4-yl-2-phenyl-pyrazolo[1,5-a]pyrimidin-5-yl)-hydrazine], the IC50 turned out to be 300 nM.
Take `Cc1ccccc1/C=N/Nc1cc(N2CCOCC2)n2nc(-c3ccccc3)cc2n1` [Compound 57, N-(2-methyl-benzylidene)-N′-(7-morpholin-4-yl-2-phenyl-pyrazolo[1,5-a]pyrimidin-5-yl)-hydrazine]: the IC50 was 420 nM.
Turning to `C(=N\Nc1cc(N2CCOCC2)n2nc(-c3ccccc3)cc2n1)/c1cccs1` [Compound 61, N-(7-morpholin-4-yl-2-phenyl-pyrazolo[1,5-a]pyrimidin-5-yl)-N′-(thiophen-2-yl-methylidene)-hydrazine], the IC50 was 370 nM.
For the molecule `Cc1ccsc1/C=N/Nc1cc(N2CCOCC2)n2nc(-c3ccccc3)cc2n1` [Compound 62, N-(3-methyl-thiophen-2-yl-methylidene)-N′-(7-morpholin-4-yl-2-phenyl-pyrazolo[1,5-a]pyrimidin-5-yl)-hydrazine], the half-maximal inhibitory concentration (IC50) was determined as 320 nM.
`CC(/C=N/Nc1cc(N2CCOCC2)n2nc(-c3ccccc3)cc2n1)=C\c1ccccc1` [Compound 63, N-(2-methyl-3-phenyl-alkylidene)-N′-(7-morpholin-4-yl-2-phenyl-pyrazolo[1,5-a]pyrimidin-5-yl)-hydrazine]: the IC50 worked out at 320 nM.
As for `CN(Cc1ccccc1)Nc1cc(N2CCOCC2)n2nc(-c3ccccc3)cc2n1` [Compound 66, N-benzyl-N-methyl-N′-(7-morpholin-4-yl-2-phenyl-pyrazolo[1,5-a]pyrimidin-5-yl)-hydrazine], the IC50 is 330 nM.
As for `C(=N\Nc1cc(N2CCOCC2)n2nc(-c3ccccc3)cc2n1)/c1cccc2[nH]ccc12` [Compound 72, N-(1H-indol-4-yl-methylidene)-N′-(7-morpholin-4-yl-2-phenyl-pyrazolo[1,5-a]pyrimidin-5-yl)-hydrazine], the IC50 was determined as 190 nM.
As for `Cc1nc2sccn2c1/C=N/Nc1cc(N2CCOCC2)n2nc(-c3ccccc3)cc2n1` [Compound 75, N-(6-methy-imidazo[2,1-b]thiazole-5-methylidene)-N′-(7-morpholin-4-yl-2-phenyl-pyrazolo[1,5-a]pyrimidin-5-yl)-hydrazine], the 50% inhibitory concentration (IC50) came out at 290 nM.
In the case of `Cc1[nH]c2ccccc2c1/C=N/Nc1cc(N2CCOCC2)n2nc(-c3ccccc3)cc2n1` [Compound 78, N-(2-methyl-1H-indol-3-yl-methylidene)-N′-(7-morpholin-4-yl-2-phenyl-pyrazolo[1,5-a]pyrimidin-5-yl)-hydrazine], the half-inhibitory concentration (IC50) amounted to 440 nM.
For `C(=N\Nc1cc(N2CCOCC2)n2nc(-c3ccc(N4CCOCC4)nc3)cc2n1)/c1c[nH]c2ccccc12` [Compound 86, N-(1H-indol-3-yl-methylidene)-N′-[7-morpholin-4-yl-2-(6-morpholin-4-yl-pyridin-3-yl)-pyrazolo[1,5-a]pyrimidin-5-yl]-hydrazine], the IC50 worked out at 1.8 nM.
Take `COc1ccc(/C=N/Nc2cc(N3CCOCC3)n3nc(-c4ccncc4)cc3n2)cc1C` [Compound 92, N-(4-methoxy-3-methyl-benzylidene)-N′-(7-morpholin-4-yl-2-pyridin-4-yl-pyrazolo[1,5-a]pyrimidin-5-yl)-hydrazine]: the IC50 worked out at 44 nM.
Take `C(=N\Nc1cc(N2CCOCC2)n2nc(-c3cnccn3)cc2n1)/c1c[nH]c2ccccc12` [Compound 93, N-(1H-indol-3-yl-methylidene)-N′-(7-morpholin-4-yl-2-pyrazin-2-yl-pyrazolo[1,5-a]pyrimidin-5-yl)-hydrazine]: the IC50 worked out at 6.5 nM.
`Cc1cccc(/C=N/Nc2cc(N3CCOCC3)n3nc(-c4cc(C)on4)cc3n2)c1` [Compound 98, N-(3-methyl-benzylidene)-N′-[2-(5-methylisoxazol-3-yl)-7-morpholin-4-yl-pyrazolo[1,5-a]pyrimidin-5-yl]-hydrazine]: the half-inhibitory concentration (IC50) came to 26 nM.
As to `Cc1cc(-c2cc3nc(N/N=C/c4c[nH]c5ccccc45)cc(N4CCOCC4)n3n2)no1` [Compound 99, N-(1H-indol-3-yl-methylidene)-N′-[2-(5-methylisoxazol-3-yl)-7-morpholin-4-yl-pyrazolo[1,5-a]pyrimidin-5-yl]-hydrazine], the IC50 was found to be 16 nM.
Take `Cc1cccc(/C=N/Nc2cc(N3CCOCC3)n3nc(N4CCCCC4)cc3n2)c1` [Compound 100, N-(3-methyl-benzylidene)-N-(7-morpholin-4-yl-2-piperidin-1-yl-pyrazolo[1,5-a]pyrimidin-5-yl)-hydrazine]: the IC50 turned out to be 360 nM.
For `C(=N\Nc1cc(N2CCOCC2)n2nc(N3CCCCC3)cc2n1)/c1c[nH]c2ccccc12` [Compound 101, N-(1H-indol-3-yl-methylidene)-N-(7-morpholin-4-yl-2-piperidin-1-yl-pyrazolo[1,5-a]pyrimidin-5-yl)-hydrazine] the value was 380 nM; for `C(=N\Nc1cc(N2CCOCC2)n2nc(-c3cccnc3)cc2n1)/c1ccc2[nH]ccc2c1` [Compound 103, N-(1H-indol-5-yl-methylidene)-N-(7-morpholin-4-yl-2-pyridin-3-yl-pyrazolo[1,5-a]pyrimidin-5-yl)-hydrazine], 160 nM.
Regarding `Cc1[nH]c2ccc(/C=N/Nc3cc(N4CCOCC4)n4nc(-c5cccnc5)cc4n3)cc2c1C` [Compound 105, N-(2,3-dimethyl-1H-indol-5-yl-methylidene)-N-(7-morpholin-4-yl-2-pyridin-3-yl-pyrazolo[1,5-a]pyrimidin-5-yl)-hydrazine], the half-inhibitory concentration (IC50) came out at 89 nM.
For `Cc1[nH]c2ccc(/C=N/Nc3cc(N4CCOCC4)n4nc(-c5cnccn5)cc4n3)cc2c1C` [Compound 107, N-(2,3-dimethyl-1H-indol-5-yl-methylidene)-N-(7-morpholin-4-yl-2-pyrazin-2-yl-pyrazolo[1,5-a]pyrimidin-5-yl)-hydrazine], the IC50 came to 170 nM.
As for `C(=N\Nc1cc(N2CCOCC2)n2nc(-c3ccncc3)cc2n1)/c1csc2ccccc12` [Compound 109, N-benzo[b]thiophen-3-yl-methylidene-N′-(7-morpholin-4-yl-2-pyridin-4-yl-pyrazolo[1,5-a]pyrimidin-5-yl)-hydrazine], the concentration for half-maximal inhibition (IC50) is 490 nM.
On to `Cc1cccc(/C=N/Nc2cc(N3CCOCC3)n3nc(-c4ccc(C)nc4)cc3n2)c1` [Compound 110, N-(3-methyl-benzylidene)-N′-[2-(6-methyl-pyridin-3-yl)-7-morpholin-4-yl-pyrazolo[1,5-a]pyrimidin-5-yl]-hydrazine], for which the half-maximal inhibitory concentration (IC50) stood at 7.3 nM.
On to `Cc1ccc(-c2cc3nc(N/N=C/c4coc5ccccc45)cc(N4CCOCC4)n3n2)cn1` [Compound 111, N-benzofuran-3-yl-methylidene-N′-[2-(6-methyl-pyridin-3-0)-7-morpholin-4-yl-pyrazolo[1,5-a]pyrimidin-5-yl]-hydrazine], for which the IC50 was found to be 37 nM.
As for `Cc1ccc(-c2cc3nc(N/N=C/c4c[nH]c5ccccc45)cc(N4CCOCC4)n3n2)cn1` [Compound 112, N-(1H-indol-3-yl-methylidene)-N′-[2-(6-methyl-pyridin-3-yl)-7-morpholin-4-yl-pyrazolo[1,5-a]pyrimidin-5-yl]-hydrazine], the concentration for half-maximal inhibition (IC50) turned out to be 7.5 nM.
With `C(=N\Nc1cc(N2CCOCC2)n2nc(-c3ccncc3)cc2n1)/c1ccc2c(c1)OCCO2` [Compound 113, N-(2,3-dihydro-benzo[1,4]dioxin-6-yl-methylidene)-N′-(7-morpholin-4-yl-2-pyridin-4-yl-pyrazolo[1,5-a]pyrimidin-5-yl)-hydrazine] the figure was 98 nM.

These data come from patent US8314098B2, “Pyrazolo-pyrimidine compounds” (Ajinomoto Co., Inc., priority 2008, dated 2012).
